{
  "source": "ChEMBL document CHEMBL1201862",
  "about": "“PubChem BioAssay data set” (2004)",
  "assay_type_in_all_cases": "functional",
  "key": {"[1]": {"target": "Cyclin-dependent kinase 1 (Homo sapiens, UniProt P06493)", "sequence (P06493 whole entry)": "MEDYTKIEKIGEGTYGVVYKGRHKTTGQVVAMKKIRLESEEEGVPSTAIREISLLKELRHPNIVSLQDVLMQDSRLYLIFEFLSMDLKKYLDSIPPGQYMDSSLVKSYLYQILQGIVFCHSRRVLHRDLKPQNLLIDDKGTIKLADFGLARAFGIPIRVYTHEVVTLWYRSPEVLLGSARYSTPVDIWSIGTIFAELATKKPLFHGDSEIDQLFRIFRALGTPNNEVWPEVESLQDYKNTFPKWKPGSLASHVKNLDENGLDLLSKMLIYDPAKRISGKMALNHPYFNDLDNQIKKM"}, "[2]": {"target": "Receptor-type tyrosine-protein kinase FLT3 (Homo sapiens, UniProt P36888)"}, "[3]": {"target": "Serine/threonine-protein kinase PLK1 (Homo sapiens, UniProt P53350)"}, "[4]": {"target": "Mitogen-activated protein kinase kinase kinase 20 (Homo sapiens, UniProt Q9NYL2)"}, "[5]": {"target": "MAP/microtubule affinity-regulating kinase 3 (Homo sapiens, UniProt P27448)"}, "[6]": {"target": "cGMP-dependent protein kinase 1 (Homo sapiens, UniProt Q13976)"}, "[7]": {"target": "Serine/threonine-protein kinase DCLK1 (Homo sapiens, UniProt O15075)"}, "[8]": {"target": "cAMP-dependent protein kinase catalytic subunit alpha (Homo sapiens, UniProt P17612)"}, "[9]": {"target": "Protein kinase C iota type (Homo sapiens, UniProt P41743)"}, "[10]": {"target": "Casein kinase II subunit alpha (Homo sapiens, UniProt P68400)"}, "[11]": {"target": "Cyclin-dependent kinase 7 (Homo sapiens, UniProt P50613)"}, "[12]": {"target": "Tyrosine-protein kinase FRK (Homo sapiens, UniProt P42685)"}, "[13]": {"target": "Serine/threonine-protein kinase BRSK1 (Homo sapiens, UniProt Q8TDC3)"}, "[14]": {"target": "Proto-oncogene tyrosine-protein kinase ROS (Homo sapiens, UniProt P08922)", "sequence (P08922 whole entry)": "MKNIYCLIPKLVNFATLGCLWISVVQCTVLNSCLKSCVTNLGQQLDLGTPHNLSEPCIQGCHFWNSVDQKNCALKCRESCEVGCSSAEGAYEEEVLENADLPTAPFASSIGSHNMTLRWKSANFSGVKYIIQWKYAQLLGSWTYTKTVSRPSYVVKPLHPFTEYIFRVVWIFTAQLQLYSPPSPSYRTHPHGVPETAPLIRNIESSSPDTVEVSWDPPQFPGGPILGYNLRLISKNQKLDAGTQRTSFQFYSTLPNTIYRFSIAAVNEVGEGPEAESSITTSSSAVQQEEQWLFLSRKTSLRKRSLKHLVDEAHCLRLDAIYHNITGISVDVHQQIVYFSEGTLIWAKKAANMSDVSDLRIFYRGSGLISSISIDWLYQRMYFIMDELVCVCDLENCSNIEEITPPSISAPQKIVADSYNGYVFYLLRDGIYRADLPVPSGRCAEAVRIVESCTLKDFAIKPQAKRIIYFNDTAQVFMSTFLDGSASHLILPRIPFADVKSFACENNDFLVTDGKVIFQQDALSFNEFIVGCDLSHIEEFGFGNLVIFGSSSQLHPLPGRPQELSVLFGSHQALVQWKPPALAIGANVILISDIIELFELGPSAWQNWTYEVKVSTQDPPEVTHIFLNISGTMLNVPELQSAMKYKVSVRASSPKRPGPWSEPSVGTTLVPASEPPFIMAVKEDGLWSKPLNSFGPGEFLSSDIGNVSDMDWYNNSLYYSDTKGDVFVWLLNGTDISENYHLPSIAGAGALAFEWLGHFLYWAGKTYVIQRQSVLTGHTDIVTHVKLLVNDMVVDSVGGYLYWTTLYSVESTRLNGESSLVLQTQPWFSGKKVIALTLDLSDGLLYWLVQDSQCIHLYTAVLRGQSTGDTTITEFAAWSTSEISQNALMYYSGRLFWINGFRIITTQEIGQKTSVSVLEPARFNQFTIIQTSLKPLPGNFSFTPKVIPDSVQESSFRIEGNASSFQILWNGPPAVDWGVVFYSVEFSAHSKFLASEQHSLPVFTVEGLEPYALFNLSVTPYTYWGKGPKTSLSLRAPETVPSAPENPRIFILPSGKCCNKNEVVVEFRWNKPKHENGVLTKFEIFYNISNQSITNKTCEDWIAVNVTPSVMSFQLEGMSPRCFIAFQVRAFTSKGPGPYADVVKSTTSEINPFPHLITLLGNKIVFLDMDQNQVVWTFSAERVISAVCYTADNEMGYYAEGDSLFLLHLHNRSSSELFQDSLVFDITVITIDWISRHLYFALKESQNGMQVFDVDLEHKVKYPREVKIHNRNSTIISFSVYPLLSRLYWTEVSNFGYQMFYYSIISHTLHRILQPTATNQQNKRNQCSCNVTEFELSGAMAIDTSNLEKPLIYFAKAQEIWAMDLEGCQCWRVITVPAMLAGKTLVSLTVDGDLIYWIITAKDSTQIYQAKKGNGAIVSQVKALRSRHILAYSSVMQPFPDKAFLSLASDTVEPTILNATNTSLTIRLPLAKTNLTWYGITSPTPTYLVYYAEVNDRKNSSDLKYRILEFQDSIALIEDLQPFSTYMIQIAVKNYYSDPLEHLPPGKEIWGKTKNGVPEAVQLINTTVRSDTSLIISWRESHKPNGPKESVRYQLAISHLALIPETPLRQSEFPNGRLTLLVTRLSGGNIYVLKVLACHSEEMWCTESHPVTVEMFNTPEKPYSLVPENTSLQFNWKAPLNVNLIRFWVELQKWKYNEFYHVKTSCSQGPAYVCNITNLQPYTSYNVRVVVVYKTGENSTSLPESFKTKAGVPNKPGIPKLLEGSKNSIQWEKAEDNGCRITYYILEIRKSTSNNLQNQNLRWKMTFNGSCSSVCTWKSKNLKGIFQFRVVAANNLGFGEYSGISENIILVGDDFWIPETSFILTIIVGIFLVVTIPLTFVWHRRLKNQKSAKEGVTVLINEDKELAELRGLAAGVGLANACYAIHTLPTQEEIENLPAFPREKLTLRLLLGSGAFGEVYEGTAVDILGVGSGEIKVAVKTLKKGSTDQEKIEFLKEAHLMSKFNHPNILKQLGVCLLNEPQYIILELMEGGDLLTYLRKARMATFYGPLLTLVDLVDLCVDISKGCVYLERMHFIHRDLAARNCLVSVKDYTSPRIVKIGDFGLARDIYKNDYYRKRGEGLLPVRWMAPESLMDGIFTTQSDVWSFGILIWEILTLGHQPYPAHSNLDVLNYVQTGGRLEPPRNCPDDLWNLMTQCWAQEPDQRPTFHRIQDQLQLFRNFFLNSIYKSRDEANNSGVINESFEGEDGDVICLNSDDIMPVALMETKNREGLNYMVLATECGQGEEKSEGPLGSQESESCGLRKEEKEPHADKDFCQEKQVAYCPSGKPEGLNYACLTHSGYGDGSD"}, "[15]": {"target": "Mitogen-activated protein kinase kinase kinase kinase 2 (Homo sapiens, UniProt Q12851)", "sequence (Q12851 whole entry)": "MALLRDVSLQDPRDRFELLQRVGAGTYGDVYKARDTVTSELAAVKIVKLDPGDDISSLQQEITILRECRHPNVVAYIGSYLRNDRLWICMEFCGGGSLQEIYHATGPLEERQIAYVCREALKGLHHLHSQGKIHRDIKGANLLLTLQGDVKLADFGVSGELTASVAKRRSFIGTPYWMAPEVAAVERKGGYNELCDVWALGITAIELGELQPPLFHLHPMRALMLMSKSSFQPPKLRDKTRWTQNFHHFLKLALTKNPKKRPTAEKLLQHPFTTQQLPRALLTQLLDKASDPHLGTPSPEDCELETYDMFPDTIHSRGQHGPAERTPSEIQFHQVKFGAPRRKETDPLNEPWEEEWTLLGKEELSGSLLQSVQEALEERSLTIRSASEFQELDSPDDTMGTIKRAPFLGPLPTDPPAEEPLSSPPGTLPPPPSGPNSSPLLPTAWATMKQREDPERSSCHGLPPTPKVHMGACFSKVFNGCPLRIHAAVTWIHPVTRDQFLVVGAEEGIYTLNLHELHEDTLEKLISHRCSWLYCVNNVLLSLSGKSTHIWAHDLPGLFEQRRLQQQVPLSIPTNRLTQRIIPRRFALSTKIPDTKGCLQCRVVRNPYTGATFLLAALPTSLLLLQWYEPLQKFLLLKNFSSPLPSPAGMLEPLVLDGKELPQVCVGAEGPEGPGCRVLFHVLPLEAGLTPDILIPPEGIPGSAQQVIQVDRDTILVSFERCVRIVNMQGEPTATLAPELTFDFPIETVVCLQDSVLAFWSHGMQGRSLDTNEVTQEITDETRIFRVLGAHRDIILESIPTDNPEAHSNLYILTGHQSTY"}, "[16]": {"target": "MAP kinase-activated protein kinase 3 (Homo sapiens, UniProt Q16644)"}, "[17]": {"target": "Death-associated protein kinase 3 (Homo sapiens, UniProt O43293)"}, "[18]": {"target": "Serine/threonine-protein kinase N2 (Homo sapiens, UniProt Q16513)"}, "[19]": {"target": "Insulin-like growth factor 1 receptor (Homo sapiens, UniProt P08069)", "assay": "Navigating the Kinome. Panel member name: IGF1R"}, "[20]": {"target": "Serine/threonine-protein kinase Nek2 (Homo sapiens, UniProt P51955)"}, "[21]": {"target": "Megakaryocyte-associated tyrosine-protein kinase (Homo sapiens, UniProt P42679)"}, "[22]": {"target": "Serine/threonine-protein kinase 17A (Homo sapiens, UniProt Q9UEE5)"}, "[23]": {"target": "Serine/threonine-protein kinase PLK3 (Homo sapiens, UniProt Q9H4B4)"}, "[24]": {"target": "Serine/threonine-protein kinase PAK 4 (Homo sapiens, UniProt O96013)"}, "[25]": {"target": "Maternal embryonic leucine zipper kinase (Homo sapiens, UniProt Q14680)"}, "[26]": {"target": "Serine/threonine-protein kinase Chk2 (Homo sapiens, UniProt O96017)"}, "[27]": {"target": "Tyrosine-protein kinase Fer (Homo sapiens, UniProt P16591)"}, "[28]": {"target": "Homeodomain-interacting protein kinase 2 (Homo sapiens, UniProt Q9H2X6)"}, "[29]": {"target": "Casein kinase I isoform gamma-1 (Homo sapiens, UniProt Q9HCP0)", "sequence (Q9HCP0 whole entry, canonical isoform)": "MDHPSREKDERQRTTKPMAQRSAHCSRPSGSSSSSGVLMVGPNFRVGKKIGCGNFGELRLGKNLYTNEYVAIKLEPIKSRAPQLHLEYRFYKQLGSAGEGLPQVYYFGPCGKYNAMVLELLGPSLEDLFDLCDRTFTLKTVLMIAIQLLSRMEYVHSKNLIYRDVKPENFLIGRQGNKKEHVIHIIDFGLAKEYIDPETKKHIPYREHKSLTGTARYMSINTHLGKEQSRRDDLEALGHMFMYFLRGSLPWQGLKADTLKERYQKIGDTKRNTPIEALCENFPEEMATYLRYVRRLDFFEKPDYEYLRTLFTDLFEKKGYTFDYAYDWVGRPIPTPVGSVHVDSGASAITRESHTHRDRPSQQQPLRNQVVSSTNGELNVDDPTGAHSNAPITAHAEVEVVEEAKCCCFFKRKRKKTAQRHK"}, "[30]": {"target": "Cyclin-dependent kinase 9 (Homo sapiens, UniProt P50750)"}, "[31]": {"target": "MAP kinase-activated protein kinase 2 (Homo sapiens, UniProt P49137)"}, "[32]": {"target": "Calcium/calmodulin-dependent protein kinase type II subunit delta (Homo sapiens, UniProt Q13557)"}, "[33]": {"target": "Serine/threonine-protein kinase MRCK alpha (Homo sapiens, UniProt Q5VT25)"}, "[34]": {"target": "Dual specificity protein kinase CLK4 (Homo sapiens, UniProt Q9HAZ1)"}, "[35]": {"target": "Fibroblast growth factor receptor 1 (Homo sapiens, UniProt P11362)"}, "[36]": {"target": "Tyrosine-protein kinase BTK (Homo sapiens, UniProt Q06187)", "sequence (Q06187 whole entry)": "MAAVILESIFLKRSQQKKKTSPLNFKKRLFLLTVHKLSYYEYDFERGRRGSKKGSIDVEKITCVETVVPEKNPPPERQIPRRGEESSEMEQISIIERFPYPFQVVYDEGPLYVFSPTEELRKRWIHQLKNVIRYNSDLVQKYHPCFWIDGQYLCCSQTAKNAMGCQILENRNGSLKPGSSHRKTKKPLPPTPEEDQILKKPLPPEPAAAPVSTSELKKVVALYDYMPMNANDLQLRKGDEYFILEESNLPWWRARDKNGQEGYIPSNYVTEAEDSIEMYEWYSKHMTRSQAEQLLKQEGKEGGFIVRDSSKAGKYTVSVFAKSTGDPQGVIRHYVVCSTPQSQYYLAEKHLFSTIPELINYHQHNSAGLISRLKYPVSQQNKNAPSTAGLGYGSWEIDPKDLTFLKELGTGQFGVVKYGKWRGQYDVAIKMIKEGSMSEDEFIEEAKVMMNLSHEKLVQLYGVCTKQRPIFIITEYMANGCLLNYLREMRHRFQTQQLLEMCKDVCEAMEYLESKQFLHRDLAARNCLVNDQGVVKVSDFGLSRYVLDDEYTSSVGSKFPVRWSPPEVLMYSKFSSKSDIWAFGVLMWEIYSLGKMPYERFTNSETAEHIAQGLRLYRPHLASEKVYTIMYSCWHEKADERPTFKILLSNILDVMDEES"}, "[37]": {"target": "Macrophage colony-stimulating factor 1 receptor (Homo sapiens, UniProt P07333)"}, "[38]": {"target": "Proto-oncogene tyrosine-protein kinase receptor Ret (Homo sapiens, UniProt P07949)"}, "[39]": {"target": "Serine/threonine-protein kinase PLK4 (Homo sapiens, UniProt O00444)"}, "[40]": {"target": "Rho-associated protein kinase 1 (Homo sapiens, UniProt Q13464)"}, "[41]": {"target": "Interleukin-1 receptor-associated kinase 1 (Homo sapiens, UniProt P51617)"}, "[42]": {"target": "Serine/threonine-protein kinase pim-2 (Homo sapiens, UniProt Q9P1W9)"}, "[43]": {"target": "Tyrosine-protein kinase Srms (Homo sapiens, UniProt Q9H3Y6)"}, "[44]": {"target": "Serine/threonine-protein kinase pim-3 (Homo sapiens, UniProt Q86V86)"}, "[45]": {"target": "Proto-oncogene tyrosine-protein kinase Src (Homo sapiens, UniProt P12931)", "sequence (P12931 2-536 limits assumed)": "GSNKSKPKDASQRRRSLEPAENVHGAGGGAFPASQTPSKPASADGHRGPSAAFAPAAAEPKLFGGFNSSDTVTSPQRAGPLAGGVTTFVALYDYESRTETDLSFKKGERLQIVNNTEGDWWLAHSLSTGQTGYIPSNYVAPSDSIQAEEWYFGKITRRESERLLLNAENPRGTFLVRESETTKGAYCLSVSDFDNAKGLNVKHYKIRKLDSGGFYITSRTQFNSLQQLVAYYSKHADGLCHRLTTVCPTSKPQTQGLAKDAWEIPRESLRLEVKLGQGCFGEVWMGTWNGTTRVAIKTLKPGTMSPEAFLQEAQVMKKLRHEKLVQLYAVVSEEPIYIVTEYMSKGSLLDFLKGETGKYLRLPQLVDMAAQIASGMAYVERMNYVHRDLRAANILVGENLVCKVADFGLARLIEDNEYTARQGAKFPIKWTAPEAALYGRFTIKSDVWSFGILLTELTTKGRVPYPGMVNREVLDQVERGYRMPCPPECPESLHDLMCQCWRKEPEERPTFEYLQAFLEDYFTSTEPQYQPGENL"}, "[46]": {"target": "Tyrosine-protein kinase JAK3 (Homo sapiens, UniProt P52333)"}, "[47]": {"target": "Mitogen-activated protein kinase kinase kinase kinase 5 (Homo sapiens, UniProt Q9Y4K4)"}},
  "note": "Active and inactive are the calls of the source.",
  "data": [
    {"compound": "NC1CCCCC1Nc1nccc(-c2c[nH]c3ncccc23)n1", "note": "(configuration not stated)", "values": [
      {"measurement": "Ki", "setting": "[1]", "result": "158 nM (active)"},
      {"measurement": "Ki", "setting": "[2]", "result": "316 nM (active)"},
      {"measurement": "Ki", "setting": "[3]", "result": "> 7.94 µM (inactive)"},
      {"measurement": "Ki", "setting": "[4]", "result": "> 7.94 µM (inactive)"},
      {"measurement": "Ki", "setting": "[5]", "result": "158 nM (active)"},
      {"measurement": "Ki", "setting": "[6]", "result": "158 nM (active)"},
      {"measurement": "Ki", "setting": "[7]", "result": "3.16 µM (active)"},
      {"measurement": "Ki", "setting": "[8]", "result": "25.1 nM (active)"},
      {"measurement": "Ki", "setting": "[9]", "result": "200 nM (active)"},
      {"measurement": "Ki", "setting": "[10]", "result": "> 6.31 µM (inactive)"},
      {"measurement": "Ki", "setting": "[11]", "result": "6.31 nM (active)"},
      {"measurement": "Ki", "setting": "[12]", "result": "1.58 µM (active)"},
      {"measurement": "Ki", "setting": "[13]", "result": "5.01 µM (active)"},
      {"measurement": "Ki", "setting": "[14]", "result": "> 2 µM (inactive)"},
      {"measurement": "Ki", "setting": "[15]", "result": "79.4 nM (active)"},
      {"measurement": "Ki", "setting": "[16]", "result": "> 10 µM (inactive)"},
      {"measurement": "Ki", "setting": "[17]", "result": "39.8 nM (active)"},
      {"measurement": "Ki", "setting": "[18]", "result": "251 nM (active)"},
      {"measurement": "Ki", "setting": "[19]", "result": "> 2 µM (inactive)"},
      {"measurement": "Ki", "setting": "[20]", "result": "> 10 µM (inactive)"},
      {"measurement": "Ki", "setting": "[21]", "result": "> 2 µM (inactive)"},
      {"measurement": "Ki", "setting": "[22]", "result": "794 nM (active)"},
      {"measurement": "Ki", "setting": "[23]", "result": "> 7.94 µM (inactive)"},
      {"measurement": "Ki", "setting": "[24]", "result": "100 nM (active)"},
      {"measurement": "Ki", "setting": "[25]", "result": "100 nM (active)"},
      {"measurement": "Ki", "setting": "[26]", "result": "> 1.58 µM (inactive)"},
      {"measurement": "Ki", "setting": "[27]", "result": "1.58 µM (active)"},
      {"measurement": "Ki", "setting": "[28]", "result": "25.1 nM (active)"},
      {"measurement": "Ki", "setting": "[29]", "result": "316 nM (active)"},
      {"measurement": "Ki", "setting": "[30]", "result": "31.6 nM (active)"},
      {"measurement": "Ki", "setting": "[31]", "result": "> 7.94 µM (inactive)"},
      {"measurement": "Ki", "setting": "[32]", "result": "39.8 nM (active)"},
      {"measurement": "Ki", "setting": "[33]", "result": "63.1 nM (active)"},
      {"measurement": "Ki", "setting": "[34]", "result": "6.31 nM (active)"},
      {"measurement": "Ki", "setting": "[35]", "result": "> 5.01 µM (inactive)"},
      {"measurement": "Ki", "setting": "[36]", "result": "> 1.26 µM (inactive)"},
      {"measurement": "Ki", "setting": "[37]", "result": "> 2.51 µM (inactive)"},
      {"measurement": "Ki", "setting": "[38]", "result": "251 nM (active)"},
      {"measurement": "Ki", "setting": "[39]", "result": "3.16 µM (active)"},
      {"measurement": "Ki", "setting": "[40]", "result": "5.01 nM (active)"},
      {"measurement": "Ki", "setting": "[41]", "result": "39.8 nM (active)"},
      {"measurement": "Ki", "setting": "[42]", "result": "1 µM (active)"},
      {"measurement": "Ki", "setting": "[43]", "result": "> 1.58 µM (inactive)"},
      {"measurement": "Ki", "setting": "[44]", "result": "501 nM (active)"},
      {"measurement": "Ki", "setting": "[45]", "result": "> 2 µM (inactive)"},
      {"measurement": "Ki", "setting": "[46]", "result": "1.26 µM (active)"},
      {"measurement": "Ki", "setting": "[47]", "result": "251 nM (active)"}
    ]}
  ]
}
